This note sets out measurements from ChEMBL document CHEMBL1141622, “Carbonic anhydrase inhibitors: interactions of phenols with the 12 catalytically active mammalian isoforms (CA I-XIV)” (Bioorg Med Chem Lett, 2008).

The target in assay [1] is Carbonic anhydrase 4 (Homo sapiens) (UniProt P22748).
Description: Inhibition of human recombinant full length carbonic hydrase 4 by stopped-flow assay
The target of assay [2] is Carbonic anhydrase 2 (Homo sapiens) (UniProt P00918).
Description: Inhibition of human recombinant full length carbonic hydrase 2 by stopped-flow assay
The target in assay [3] is Carbonic anhydrase 5A, mitochondrial (Homo sapiens) (UniProt P35218).
Description: Inhibition of human recombinant full length carbonic hydrase 5A by stopped-flow assay
Assay [4] deals with Carbonic anhydrase 9 (Homo sapiens) (UniProt Q16790).
Description: Inhibition of human catalytic domain carbonic hydrase 9 by stopped-flow assay
Assay [5] concerns the target Carbonic anhydrase 12 (Homo sapiens) (UniProt O43570).
Description: Inhibition of human catalytic domain carbonic hydrase 12 by stopped-flow assay
Assay [6] deals with Carbonic anhydrase 1 (Homo sapiens) (UniProt P00915).
Carbonic anhydrase 1 (Homo sapiens), sequence (P00915 2-261 limits assumed): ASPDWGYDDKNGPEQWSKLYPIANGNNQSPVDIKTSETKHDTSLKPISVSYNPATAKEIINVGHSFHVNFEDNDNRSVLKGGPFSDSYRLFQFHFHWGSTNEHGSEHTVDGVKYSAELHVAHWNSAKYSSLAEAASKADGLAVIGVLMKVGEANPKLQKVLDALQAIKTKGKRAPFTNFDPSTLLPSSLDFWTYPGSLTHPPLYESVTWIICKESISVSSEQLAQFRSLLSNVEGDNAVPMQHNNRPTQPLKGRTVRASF
Description: Inhibition of human recombinant full length carbonic hydrase 1 by stopped-flow assay
Assay [7] has as its target Carbonic anhydrase 7 (Homo sapiens) (UniProt P43166).
Description: Inhibition of human recombinant full length carbonic hydrase 7 by stopped-flow assay
In assay [8] the target is Carbonic anhydrase 5B, mitochondrial (Homo sapiens) (UniProt Q9Y2D0).
Carbonic anhydrase 5B, mitochondrial (Homo sapiens), sequence (Q9Y2D0 whole entry): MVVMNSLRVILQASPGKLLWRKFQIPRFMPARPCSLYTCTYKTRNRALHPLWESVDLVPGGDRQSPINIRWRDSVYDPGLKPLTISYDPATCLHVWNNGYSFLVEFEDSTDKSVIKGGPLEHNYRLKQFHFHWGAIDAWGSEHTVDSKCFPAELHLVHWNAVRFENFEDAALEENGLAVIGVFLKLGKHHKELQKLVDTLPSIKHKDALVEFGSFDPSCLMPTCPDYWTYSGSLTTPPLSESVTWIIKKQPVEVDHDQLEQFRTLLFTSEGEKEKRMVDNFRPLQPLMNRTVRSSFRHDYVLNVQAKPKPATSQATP
Description: Inhibition of human recombinant full length carbonic hydrase 5B by stopped-flow assay
The target of assay [9] is Carbonic anhydrase 3 (Homo sapiens) (UniProt P07451).
Carbonic anhydrase 3 (Homo sapiens), sequence (P07451 whole entry): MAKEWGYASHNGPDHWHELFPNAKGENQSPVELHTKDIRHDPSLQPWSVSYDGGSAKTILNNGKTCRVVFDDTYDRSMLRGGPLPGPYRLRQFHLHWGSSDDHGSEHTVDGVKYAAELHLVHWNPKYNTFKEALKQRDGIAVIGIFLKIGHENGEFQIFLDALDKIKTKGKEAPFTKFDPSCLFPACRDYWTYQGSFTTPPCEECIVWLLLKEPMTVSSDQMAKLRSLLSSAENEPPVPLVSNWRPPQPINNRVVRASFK
Description: Inhibition of human recombinant full length carbonic hydrase 3 by stopped-flow assay
Assay [10] has as its target Carbonic anhydrase 13 (Mus musculus) (UniProt Q9D6N1). Description: Inhibition of mouse recombinant full length carbonic hydrase 13 by stopped-flow assay.
The target in assay [11] is Carbonic anhydrase 6 (Homo sapiens) (UniProt P23280).
Carbonic anhydrase 6 (Homo sapiens), sequence (P23280 whole entry): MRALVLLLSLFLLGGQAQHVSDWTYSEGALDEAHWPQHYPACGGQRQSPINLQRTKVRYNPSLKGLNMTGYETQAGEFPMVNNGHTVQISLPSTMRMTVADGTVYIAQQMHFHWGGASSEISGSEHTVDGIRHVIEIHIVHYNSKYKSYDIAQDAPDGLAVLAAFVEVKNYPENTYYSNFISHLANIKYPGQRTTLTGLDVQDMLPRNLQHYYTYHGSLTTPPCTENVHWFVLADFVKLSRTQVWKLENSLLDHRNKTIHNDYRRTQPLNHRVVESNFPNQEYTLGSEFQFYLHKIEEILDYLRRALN
Description: Inhibition of human recombinant full length carbonic hydrase 6 by stopped-flow assay
In assay [12] the target is Carbonic anhydrase 14 (Homo sapiens) (UniProt Q9ULX7).
Carbonic anhydrase 14 (Homo sapiens), sequence (Q9ULX7 whole entry): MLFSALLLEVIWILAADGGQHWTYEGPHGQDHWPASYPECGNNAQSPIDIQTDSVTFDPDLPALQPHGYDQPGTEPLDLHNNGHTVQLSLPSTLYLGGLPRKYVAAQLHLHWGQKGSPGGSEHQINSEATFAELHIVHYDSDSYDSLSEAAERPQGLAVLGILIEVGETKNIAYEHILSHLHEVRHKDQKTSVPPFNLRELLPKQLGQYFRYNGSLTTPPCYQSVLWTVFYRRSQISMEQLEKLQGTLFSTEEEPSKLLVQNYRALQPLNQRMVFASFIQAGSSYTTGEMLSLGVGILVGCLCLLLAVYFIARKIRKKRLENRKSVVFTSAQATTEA
Description: Inhibition of human recombinant full length carbonic hydrase 14 by stopped-flow assay

Carbonic anhydrase 5A, mitochondrial (Homo sapiens), sequence (P35218 whole entry): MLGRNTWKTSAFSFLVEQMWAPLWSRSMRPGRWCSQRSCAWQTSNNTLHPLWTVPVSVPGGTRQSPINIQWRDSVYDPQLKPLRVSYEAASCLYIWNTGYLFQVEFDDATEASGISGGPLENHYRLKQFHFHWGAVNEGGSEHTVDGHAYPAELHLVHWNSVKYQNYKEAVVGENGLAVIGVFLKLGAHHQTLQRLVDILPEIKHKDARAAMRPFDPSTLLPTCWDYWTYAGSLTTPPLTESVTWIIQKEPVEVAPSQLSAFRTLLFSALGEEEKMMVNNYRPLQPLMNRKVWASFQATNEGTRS
Carbonic anhydrase 13 (Mus musculus), sequence (Q9D6N1 whole entry, looked up): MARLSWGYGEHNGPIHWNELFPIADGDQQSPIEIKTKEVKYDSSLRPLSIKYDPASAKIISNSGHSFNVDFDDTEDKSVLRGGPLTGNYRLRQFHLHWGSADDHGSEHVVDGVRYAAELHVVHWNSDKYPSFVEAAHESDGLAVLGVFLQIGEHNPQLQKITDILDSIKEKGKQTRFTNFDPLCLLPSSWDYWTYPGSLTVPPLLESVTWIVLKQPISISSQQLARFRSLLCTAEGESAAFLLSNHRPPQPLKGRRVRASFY
Carbonic anhydrase 4 (Homo sapiens), sequence (P22748 whole entry): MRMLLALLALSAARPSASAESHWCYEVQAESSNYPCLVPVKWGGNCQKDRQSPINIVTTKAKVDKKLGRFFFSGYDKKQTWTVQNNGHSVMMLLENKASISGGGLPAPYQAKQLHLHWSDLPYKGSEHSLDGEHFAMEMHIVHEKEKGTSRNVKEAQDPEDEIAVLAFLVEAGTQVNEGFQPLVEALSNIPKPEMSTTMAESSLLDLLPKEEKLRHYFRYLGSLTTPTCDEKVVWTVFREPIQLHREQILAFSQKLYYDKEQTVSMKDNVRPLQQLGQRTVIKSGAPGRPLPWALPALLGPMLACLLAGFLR
Carbonic anhydrase 7 (Homo sapiens), sequence (P43166 whole entry): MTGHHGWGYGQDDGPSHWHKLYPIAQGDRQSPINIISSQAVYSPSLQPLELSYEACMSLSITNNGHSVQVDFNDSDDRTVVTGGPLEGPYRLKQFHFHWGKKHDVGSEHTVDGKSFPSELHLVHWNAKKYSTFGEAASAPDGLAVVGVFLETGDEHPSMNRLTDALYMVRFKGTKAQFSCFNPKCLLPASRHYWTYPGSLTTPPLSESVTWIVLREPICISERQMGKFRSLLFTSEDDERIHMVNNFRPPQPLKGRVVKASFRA
Carbonic anhydrase 12 (Homo sapiens), sequence (O43570 whole entry): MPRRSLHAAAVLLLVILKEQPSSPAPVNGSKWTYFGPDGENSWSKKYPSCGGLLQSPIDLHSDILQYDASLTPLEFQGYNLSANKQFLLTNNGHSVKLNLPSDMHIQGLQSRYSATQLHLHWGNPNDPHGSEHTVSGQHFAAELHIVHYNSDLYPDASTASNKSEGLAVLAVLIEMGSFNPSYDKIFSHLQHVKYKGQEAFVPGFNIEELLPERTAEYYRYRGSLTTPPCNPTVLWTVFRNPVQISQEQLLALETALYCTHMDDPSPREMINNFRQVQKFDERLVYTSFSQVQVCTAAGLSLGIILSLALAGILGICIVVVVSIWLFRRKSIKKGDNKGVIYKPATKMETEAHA

Regarding `Oc1cc(F)cc(F)c1`, the Ki amounted to 10.7 µM in assay [1]; 33.9 µM in assay [2]; 65 µM in assay [3]; 38.8 µM in assay [6]; 98.4 µM in assay [8]; 0.71 µM in assay [9]. Besides, the affinity in assay [11] corresponds to a Ki of 82.6 µM. Moreover, the Kinact was found to be 9.4 µM in assay [4]; 70.2 µM in assay [5]; 163 µM in [7]; 84.2 µM in [10]; 10.6 µM in assay [12].

With `CC(=O)/N=c1/sc(S(N)(=O)=O)nn1C`, the values for the Ki in [3], in assay [9] and in assay [11] were 0.065 µM, 710 µM and 0.01 µM, respectively. The Kinact in [10] came to 0.019 µM.

Turning to `Oc1c(I)cc(Cl)c2cccnc12`, the Ki in [1] is 5.4 µM; in assay [2] it was 6.5 µM; in [3], 8.3 µM; in assay [6], 6.6 µM; in assay [9], 3.3 µM; in [11], 5.3 µM. Moreover, the Kinact in assay [4] worked out at 5.6 µM; in [5], 8.1 µM; in assay [7] it was 16 µM; in assay [10], 4.9 µM; in [12], 5 µM.
